Data as given in patent US9420813B2, “Sweetener” (AJINOMOTO CO., INC., priority 2007, dated 2016).
*1 amine or outer side, *2 acyl side, *3 side chain or, on linkers, in order; H or OH if unused. Where no end group is shown, it is not given here. [ ]: non-standard residue; d: D form. γGlu = O=C(O)[C@H](CCC(=O)[*:2])N[*:1]; Abu = CC[C@H](N)C(=O)O

Assays:
[1] = Quantitative sensory evaluation, improvement of body taste and bitterness of single high-intensity sweeteners (Examples 1 and 3); design: species or system human; conditions: for Bitterness: control 0, <0 improved; for Bitterness / Body taste: n=12; for Body taste: control 0, >0 improved; for improvement of the body taste (conclusion in words): APM, sucralose or Ace-K solutions, Tables 6 to 8 and 13 to 15
Description: The quantitative sensory evaluation test was performed as follows. As for standard solutions of each sweetener, the following compounds were used. The following standard solutions were adjusted so that they each have almost the same degree of sweetness.
iii) Sucralose (0.008 g/dl)
To distilled water containing each of the above sweeteners, γ-Glu-Cys-Gly (glutathione), γ-Glu-Val-Gly, or γ-Glu-Abu-Gly was added and mixed at concentrations of 0.0001 to 1 g/dl, and then the degree of the improvement of the body taste and the improvement of the bitterness on the sweet taste was measured.
When one of the mixtures is more acidic than the standard control solution, the pH of the sample solution was adjusted with NaOH to achieve a range of pH±0.2 with respect to the pH of the standard solution before use.
(§1) The sensory evaluation for the improvement of the body taste was performed with n=12 on the basis of the following criteria: a control (obtained by adding distilled water only and without adding glutathione and/or the peptide) was defined as 0, and by using the control as a standard, the following were defined: weak: −2 points; slightly weak: −1 point; slightly strong: 1 point, and strong: 2 points. A higher score than 0 means that the sample improved the body taste.
as §1, with “Alternatively, the” for “The”, “bitterness” for “body taste”, “lower” for “higher”, “improves” for “improved”, “bitterness.” for “body taste.”
The quantitative sensory evaluation test was performed as follows. As for standard solutions of each sweetener, the following compounds were used. The following standard solutions have been adjusted so as they each have almost the same degree of sweetness.
To distilled water containing each sweeteners, γ-Glu-Val-Gly or cinacalcet was mixed as a sample at concentrations of 0.0001 to 1 g/dl, respectively, and then each degree of the improvement of the body taste and the improvement of the bitterness on the sweet taste was measured.
When a mixture is more acidic than the standard control solution, the pH of the mixture was adjusted with NaOH to achieve a range of pH±0.2 with respect to the pH of the standard solution before use.
as §1, with “a sample)” for “glutathione and/or the peptide)”, “improves” for “improved”
(§2) Alternatively, the sensory evaluation for the improvement of the bitterness was performed with n=12 on the basis of the following criteria: a control (obtained with adding distilled water only and without adding a sample) was defined as 0, and by using the control as a standard, the following were defined: weak: −2 points; slightly weak: −1 point; slightly strong: 1 point, and strong: 2 points. A lower score than 0 means that the sample improves the bitterness.

[2] = Quantitative sensory evaluation, body taste and bitterness in drinkable yogurt containing high intensity sweetener (Example 5); design: species or system human; conditions: for Bitterness: control 0, <0 improved; for Bitterness / Body taste: n=12; for Body taste: control 0, >0 improved; for improvement of the body taste (conclusion in words): drinkable yogurt with APM, Table 20
Description: The quantitative sensory evaluation test was performed as follows. As for a drinkable yogurt standard solution, the following compounds were used. The following standard solutions have been adjusted so they each have almost the same degree of sweetness.
To a drinkable yogurt containing each of the sweeteners, γ-Glu-Val-Gly or cinacalcet was added and mixed at concentrations 0.0001 to 1 g/dl, and then each degree of the improvement of the body taste and the improvement of the bitterness on the sweet taste was measured.
When a mixture is more acidic than the standard control solution, the pH of the sample was adjusted with NaOH to achieve a range of pH±0.2 with respect to the pH of the standard solution before use.
as §1, with “(obtained with” for “(obtained by”, “adding” for “adding glutathione and/or”, “the sample)” for “the peptide)”, “sample has a” for “sample improved the”, “body taste-improving effect.” for “body taste.”
as §2, with “On the other hand, the” for “Alternatively, the”, “adding the” for “adding a”

[3] = Quantitative sensory evaluation test, intensity of kokumi-imparting activity; design: key to Kokumi intensity, initial and middle taste / Kokumi intensity, aftertaste / Taste profile: *: Unmeasurable: kokumi-imparting activity is too strong to measure by sensory evaluation
Description: The quantitative sensory evaluation test was performed as follows. […] When a sample is acidic when dissolved, the pH was adjusted with NaOH to pH 6.8 to 7.2 before use. Because it is known that glutathione can impart kokumi to a food, glutathione was used as a comparative control. The test was performed with n=3 based on the following sensory evaluation scores: control was given 0 points, glutathione addition was given 3 points. […] It should be noted that the term “initial and middle taste” is a collective term of the initial taste and middle taste.
The quantitative sensory evaluation test was performed as follows. […] When a sample is acidic when dissolved, the pH of the sample was adjusted with NaOH to pH 6.8 to 7.2 before use. The test was performed with n=5 based on the following sensory evaluation scores: control was given 0 point and glutathione addition was given 3 points.
The quantitative sensory evaluation test was performed as follows. […] As for a sample which is acidic when the sample is dissolved, pH of the sample was adjusted with NaOH to pH 6.8 to 7.2 before use. The test was performed with n=12 based on the following sensory evaluation scores: control: 0 point and glutathione addition: 3 points.

[4] = APM 0.025 g/dl, sample 0.0001 g/dl
[5] = APM 0.025 g/dl, sample 0.001 g/dl
[6] = Ace-K 0.025 g/dl, sample 0.0001 g/dl
[7] = Ace-K 0.025 g/dl, sample 0.001 g/dl
[8] = sucralose 0.008 g/dl, sample 0.0001 g/dl
[9] = sucralose 0.008 g/dl, sample 0.001 g/dl
[10] = drinkable yogurt with APM 0.025 g/dl, sample 0.0001 g/dl
[11] = drinkable yogurt with APM 0.025 g/dl, sample 0.001 g/dl
[12] = APM 0.025 g/dl, sample 0.05 g/dl
[13] = Ace-K 0.025 g/dl, sample 0.05 g/dl
[14] = sucralose 0.008 g/dl, sample 0.05 g/dl
[15] = sample 0.1 g/dl, control 0, glutathione 3 points, n=3
[16] = sample 0.1 g/dl, control 0, glutathione 3 points, n=5
[17] = sample 0.1 g/dl, control 0, glutathione 3 points, n=12
[18] = sample 0.01 g/dl, control 0, glutathione 3 points, n=5
[19] = sample 0.01 g/dl, control 0, glutathione 3 points, n=12
[20] = APM 0.025 g/dl, sample 0.001 g/dl (γ-Glu-Abu-Gly of Table 6)
[21] = Ace-K 0.025 g/dl, sample 0.01 g/dl
[22] = sucralose 0.008 g/dl, sample 0.01 g/dl

With `C[C@@H](NCCCc1cccc(C(F)(F)F)c1)c1cccc2ccccc12` [Cinacalcet, (R)—N-(3-(3-(trifluoromethyl)phenyl)propyl)-1-(1-naphthyl)ethylamine, reference compound] the Bitterness [1, 4] was −0.2 points, the Body taste [1, 4] was 0.8 points and the Bitterness [1, 5] was −0.5 points. The Body taste [1, 5] was 1.5 points, the “improvement of the body taste (conclusion in words)” value (shortened to “improvement of the body taste”) [1] was “improve the body taste at almost the same concentration” and the Taste profile [1, 6] was “Sweet taste with growth is enhanced in middle”. For the same compound, the Bitterness [1, 6] was −0.2 points, the Body taste [1, 6] was 0.6 points and the Taste profile [1, 7] was “Sweet taste with growth is enhanced in middle”. The Bitterness [1, 7] was −0.3 points, the Body taste [1, 7] was 1.1 points and the Bitterness [1, 8] was −0.1 points. It also gave a Body taste [1, 8] of 0.5 points, a Bitterness [1, 9] of −0.2 points and a Body taste [1, 9] of 1.1 points. For the same compound, the Bitterness [2, 10] was −0.2 points, the Body taste [2, 10] was 0.5 points and the Bitterness [2, 11] was −0.1 points. For the same compound, the Body taste [2, 11] was 1.6 points and the “improvement of the body taste” value [2] was “improves the body taste at almost the same concentration”.

In the case of `N[C@@H](CCC(=O)N[C@@H](CS)C(=O)NCC(=O)O)C(=O)O` [γ-Glu-Cys-Gly, reference compound], the Taste profile [1, 12] is reported as “Sweet taste is wholly enhanced”, the Bitterness [1, 12] is reported as −0.5 points and the Body taste [1, 12] is reported as 1.0 points. The Bitterness [1, 13] was −0.6 points, the Body taste [1, 13] was 1.0 points and the Taste profile [1, 14] was “Sweet taste with growth is enhanced in middle”. The Bitterness [1, 14] was 0 points, the Body taste [1, 14] was 1.0 points and the “Kokumi intensity, aftertaste” value [3, 15] was 3.0 points. For the same compound, the “Kokumi intensity, initial and middle taste” value [3, 15] was 3.0 points, the “Kokumi intensity, aftertaste” value [3, 16] was 3.0 points and the “Kokumi intensity, initial and middle taste” value [3, 16] was 3.0 points. For the same compound, the “Kokumi intensity, aftertaste” value [3, 17] was 3.0 points, the “Kokumi intensity, initial and middle taste” value [3, 17] was 3.0 points and the Evaluation comments ([3]; sample 0.1 g/dl, n=3) was “Thickness,”. The Taste profile ([3]; sample 0.1 g/dl, n=5) was “Thickness,” and the Taste profile ([3]; sample 0.1 g/dl, n=12) was “Thickness,”.

[γGlu]-Val-Gly gave a Bitterness [1, 4] of −0.2 points, a Body taste [1, 4] of 0.5 points and a Bitterness [1, 5] of −0.5 points. For the same compound, the Body taste [1, 5] was 1.3 points, the “improvement of the body taste” value [1] was “improve the body taste at almost the same concentration” and the Taste profile [1, 6] was “Sweet taste with growth is enhanced in middle”. For the same compound, the Bitterness [1, 6] was −0.6 points, the Body taste [1, 6] was 0.7 points and the Taste profile [1, 7] was “Sweet taste with growth is enhanced in middle”. It also gave a Bitterness [1, 7] of −1.2 points, a Body taste [1, 7] of 1.2 points and a Bitterness [1, 8] of −0.1 points. For the same compound, the Body taste [1, 8] was 0.7 points, the Bitterness [1, 9] was −0.2 points and the Body taste [1, 9] was 1.3 points. The Bitterness [2, 10] was −0.2 points, the Body taste [2, 10] was 0.5 points and the Taste profile [2, 11] was “Growth is present in middle taste. Sweet taste”. For the same compound, the Bitterness [2, 11] was −0.5 points, the Body taste [2, 11] was 1.4 points and the “improvement of the body taste” value [2] was “improves the body taste at almost the same concentration”. The “Kokumi intensity, aftertaste” value [3, 18] was 3.0 points, the “Kokumi intensity, initial and middle taste” value [3, 18] was 3.0 points and the “Kokumi intensity, aftertaste” value [3, 19] was 3.0 points. For the same compound, the “Kokumi intensity, initial and middle taste” value [3, 19] was 3.0 points, the “Kokumi intensity, aftertaste” value ([3]; sample 0.1 g/dl, n=5, symbol) was “*” and the “Kokumi intensity, initial and middle taste” value ([3]; sample 0.1 g/dl, n=5, symbol) was “*”. The Taste profile ([3]; sample 0.1 g/dl, n=5, symbol) was “*”.

For [γGlu]-[Abu]-Gly, the Taste profile [1, 5] was “Sweet taste is enhanced in initial taste”, the Taste profile [1, 20] was “Sweet taste is enhanced in initial taste” and the Bitterness [1, 20] was −0.1 points. The Body taste [1, 20] was 1.5 points, the Bitterness [1, 5] was −0.1 points and the Body taste [1, 5] was 0.7 points. It also gave a Bitterness [1, 7] of −0.6 points, a Body taste [1, 7] of 0.5 points and a Bitterness [1, 21] of −1.2 points. For the same compound, the Body taste [1, 21] was 1.1 points, the Bitterness [1, 9] was −0.1 points and the Body taste [1, 9] was 0.5 points. For the same compound, the Bitterness [1, 22] was −0.1 points, the Body taste [1, 22] was 1.0 points and the “Kokumi intensity, aftertaste” value [3, 19] was 2.0 points. For the same compound, the “Kokumi intensity, initial and middle taste” value [3, 19] was 3.0 points.
